Tests used:
OST6 complex [1] = biological target: T1, OST6 complex (Saccharomyces cerevisiae, UniProt P39007); assay: In vitro glycosylation assay, acceptor peptides, OST6 complex; format: biochemical; conditions: for OST6 complex activity compared with OST3 complex, in words: synthetic chitobiose-containing LLO, TAMRA-YANATS with 50 μM LLO C20 (Fig. 5A), TAMRA-DANYTK data not shown
T1 construct: were purified separately from strains expressing only one type of complex; made in house; host or cells: Saccharomyces cerevisiae, BY4742-derived strain ost3::LEU2MX6 OST4-1D4::kanMX6 YEp352-OST6
Experimental: Figure 5 OST3 complex turns over both glycosylation substrates faster than the OST6 complex, but with similar substrate affinities.A, enzyme activity of OST3 and OST6 complexes. Reactions were performed with 25 μM peptide TAMRA-YANATS, 50 μM LLO C20, and varying concentrations of purified OST3 complex (blue) or OST6 complex (red). Glycopeptide product was measured by UPLC and initial rates of reaction were determined by linear regression of the initial phase of the reaction. Turnover rates were determined by linear regression of the initial rates of reaction measured across the enzyme concentrations of 0.01–0.1 μM for OST3 complex and 0.1–0.5 μM for OST6 complex. Error bars indicate standard deviations from the mean of three reaction sets (n = 3). B, synthetic LLO preferences of OST3 and OST6 complexes. Reactions were performed with 25 μM peptide TAMRA-YANATS, 50 μM of the indicated LLO (C15, C20, or C25) and 0.09 μM of purified OST3 complex (blue) or 0.5 μM OST6 complex (red). Turnover rates were determined by linear regression of the initial phase of the reaction and accounting for the enzyme concentration in the reaction. Error bars indicate standard deviations from the mean of three reactions (n = 3). C, quantification of kinetic parameters for the synthetic LLO C20. Reactions were performed with 25 μM peptide TAMRA-YANATS, varying concentrations of synthetic LLO C20, and either 0.1 μM purified OST3 complex (blue) or 0.5 μM OST6 complex (red). Turnover rates were determined by linear regression of the initial phase of the reaction and accounting for the enzyme concentration in the reaction. The mean of three reactions is shown and the data were fitted by nonlinear regression according to the Michaelis–Menten formula (R^2 = 0.9685 (OST3 complex), 0.9720 (OST6 complex)) using Prism. Error bars indicate standard deviations from the mean (n = 3). Asterisk indicates a data point not included in the Michaelis–Menten fitting, due to poor fitting. D, quantification of kinetic parameters for the peptide TAMRA-YANATS. Reactions were performed with 100 μM synthetic LLO C20, varying concentrations of peptide TAMRA-YANATS, and 0.1 μM purified OST3 complex (blue) or OST6 complex (red). Turnover rates were determined by linear regression of the initial phase of the reaction and accounting for the enzyme concentration in the reaction. The mean of three reactions is shown and the data were fitted by nonlinear regression according to the Michaelis–Menten formula (R^2 = 0.9794 (OST3 complex), 0.9214 (OST6 complex)) using Prism. Error bars indicate standard deviations from the mean (n = 3). Asterisk indicates data points not included in the Michaelis–Menten fitting, due to poor fitting. E, SDS-PAGE (14 % acrylamide) silver staining of 0.2 μg purified OST3 complex, OST6 complex, and OST3 complex purified from alg6Δ cells. Multiple bands of Ost1p and Wbp1p represent the fully and hypoglycosylated forms of the proteins. Ost4p is tagged with the 1D4 epitope for purification. F, enzyme activity of OST complexes. Reactions were performed with 100 μM peptide TAMRA-YANATS, 50 μM LLO C20, and varying concentrations from 0.1 to 0.3 μM of purified OST3 complex, OST6 complex, or OST3 complex purified from alg6Δ cells. Turnover rates were determined as in A by linear regression of the initial rates of reaction across the enzyme concentrations of 0.1–0.3 μM for each OST. Error bars indicate the standard deviation from the mean turnover rate of three reaction sets (n = 3).
TAMRA-labeled peptides with 5-TAMRA at the N-terminus and an amide group at the C-terminus were synthesized by WatsonBio Sciences. Unlabeled peptides (Table S1) were synthesized by Genscript Corp. and were designed so that the asparagine of the glycosylation sequon was in the middle (except for Peptide 8). Lyophilized peptides were dissolved in dimethyl sulfoxide (DMSO), unless specified otherwise, to a 3 mM stock solution and further diluted in ddH2O for reactions. […]

OST6 complex [2] = biological target: T1, OST6 complex; assay: Synthetic LLO preferences and OST activity comparison, OST6 complex; format: biochemical; conditions: OST6 complex 0.5 μM, 25 μM TAMRA-YANATS, 50 μM LLO; n = 3
Experimental: Figure 5 OST3 complex turns over both glycosylation substrates faster than the OST6 complex, but with similar substrate affinities.A, enzyme activity of OST3 and OST6 complexes. Reactions were performed with 25 μM peptide TAMRA-YANATS, 50 μM LLO C20, and varying concentrations of purified OST3 complex (blue) or OST6 complex (red). Glycopeptide product was measured by UPLC and initial rates of reaction were determined by linear regression of the initial phase of the reaction. Turnover rates were determined by linear regression of the initial rates of reaction measured across the enzyme concentrations of 0.01–0.1 μM for OST3 complex and 0.1–0.5 μM for OST6 complex. Error bars indicate standard deviations from the mean of three reaction sets (n = 3). B, synthetic LLO preferences of OST3 and OST6 complexes. […] Turnover rates were determined by linear regression of the initial phase of the reaction and accounting for the enzyme concentration in the reaction. […] C, quantification of kinetic parameters for the synthetic LLO C20. […] Turnover rates were determined by linear regression of the initial phase of the reaction and accounting for the enzyme concentration in the reaction. […] D, quantification of kinetic parameters for the peptide TAMRA-YANATS. […] Turnover rates were determined by linear regression of the initial phase of the reaction and accounting for the enzyme concentration in the reaction. […]

Row | Compound | kcat/KM (OST6 complex [1]; 0.1 μM OST6 complex, 100 μM LLO C20) [min^-1 μM^−s1] | kcat (apparent) (OST6 complex [1]; 0.1 μM OST6 complex, 100 μM LLO C20, varying peptide, 30 °C, n = 3) [s⁻¹] | Km (OST6 complex [1]; 0.1 μM OST6 complex, 100 μM LLO C20, varying peptide, 30 °C, n = 3, read-out: KM (apparent)) [µM] | affinity for the peptide substrate, OST6 compared with OST3 complex, in words (OST6 complex [1]; 100 μM LLO C20) | peptide turnover rate of OST6 complex compared with OST3 complex (OST6 complex [1]; 100 μM LLO C20, TAMRA-YANATS varied) | OST6 complex activity compared with OST3 complex, in words (OST6 complex [1]) | turnover rate ranking among LLO analogs (OST6 complex [2])
1 | TAMRA-YANATS [shorter version of Peptide 5 of only six amino acid residues (TAMRA-YANATS)] | 0.05 | 0.0383 ± 0.0033 | 44.8 ± 5.7 | similar | reduced six times | drastically reduced | 
2 | CC(=O)N[C@H]1[C@@H](OP(=O)(O)OP(=O)(O)OC/C=C(\C)CC/C=C(\C)CCC=C(C)C)O[C@H](CO)[C@@H](O[C@@H]2O[C@H](CO)[C@@H](O)[C@H](O)[C@H]2NC(C)=O)[C@@H]1O [LLO C15] |  |  |  |  |  |  | lowest reaction rates
3 | TAMRA-DANYTK-NH2 [fluorescently labeled hexapeptide TAMRA-DANYTK-NH2 as the acceptor peptide, reference compound] |  |  |  |  |  | reduced | 
